Test results: patent US7884133B2, “Pharmaceutical compositions containing (+) cannabidioil and derivatives thereof and some such novel derivatives” (priority 2003, dated 2011)
Entries after “also recorded” stand apart in the source; their conditions may differ.

Legend:
female Sabra mice [1] = experiment: Tetrad overall (central cannabinoid activity); type: in vivo; conditions: 20 mg/kg i.p., tested 60 minutes later
Procedure: Central activity of the compounds of the invention was assessed in the “tetrad”, which is a series of assays commonly used to measure central cannabimimmetic effects [Martin, B. R. et al. (1991) Pharmacol. Biochem. Behav. 40(3): 471-8; Fride, E. and C. Sanudo-Pena (2002) id. ibid.]. Three parameters for peripheral activity were used. Since gastrointestinal transit is regulated locally in the periphery rather than by centrally located CB1 receptors [Izzo (2000) id. ibid.; Landi (2002) id. ibid.], intestinal motility was one of the parameters used, and peripheral cannabinoid effects was measured as rates of defecation (see Example 29).
(§1) Mice were injected with antagonist 90 minutes before testing and/or with agonist 60 minutes before testing in a series of four assays which reflect central cannabinoid activity [Martin (1991) id. ibid.; modified by Fride, E. and R. Mechoulam (1993) id. ibid.]. This “tetrad” consists of, consecutively, ambulation and rearing in an open field (8 minutes), immobility on an elevated ring of 5 cm diameter (4 minutes), rectal temperature (Yellow

female Sabra mice [2] = experiment: Intestinal motility (defecation, number of fecal pellets); type: in vivo; conditions: 20 mg/kg i.p.
Procedure: (§2) Defecation was measured as the number of fecal pellets voided in the open field. In some experiments (as indicated below), fecal pellets and body temperature were assessed for a prolonged period (3 hr).

female Sabra mice [3] = experiment: Hot plate analgesia (centrally mediated pain); type: in vivo
Procedure: (§3) Pain perception on a hot plate, is considered to be mediated by a central mechanism whereas the second, late phase of the response to an implantar injection of formalin reflects inflammatory pain mechanisms [Tjolsen, A. and Hole (1997) id. ibid.].
(§4) Thus, central pain perception was assessed by the analgesic response on a hot plate (55° C., Columbus Instruments, OH, USA). Peripheral pain was measured by the response to implantar injection of formalin (4%) 45 minutes after injection of the drug.

[4] = tested on: arachidonic acid-induced ear inflammation in the mouse; experiment: Arachidonic acid induced inflammation of the external ear; type: in vivo; conditions: for potency compared to indomethacin in ear inflammation, in words: (+)-CBD-DMH 40 or 10 mg/kg vs indomethacin 20 mg/kg
Procedure: Ear inflammation was measured by assessing ear tissue swelling after topical application of arachidonic acid, as described previously [Hanus (1999) id. ibid.]. Briefly, at various times after i.p. drug injections, arachidonic acid was applied to the inner surface of one ear (4.5 mg dissolved in […] ethanol). The opposite ear served as control (5 ethanol). Ear thickness was determined (in 0.01-mm units) by using a dial thickness gauge (Mitutoyo, Japan) every 15 minutes for 90 minutes, starting immediately after arachidonic acid application.

CB2 receptor = CB2 receptor (Homo sapiens, UniProt P34972); conditions: cited from earlier work
Chain of CB2 receptor (P34972 whole entry): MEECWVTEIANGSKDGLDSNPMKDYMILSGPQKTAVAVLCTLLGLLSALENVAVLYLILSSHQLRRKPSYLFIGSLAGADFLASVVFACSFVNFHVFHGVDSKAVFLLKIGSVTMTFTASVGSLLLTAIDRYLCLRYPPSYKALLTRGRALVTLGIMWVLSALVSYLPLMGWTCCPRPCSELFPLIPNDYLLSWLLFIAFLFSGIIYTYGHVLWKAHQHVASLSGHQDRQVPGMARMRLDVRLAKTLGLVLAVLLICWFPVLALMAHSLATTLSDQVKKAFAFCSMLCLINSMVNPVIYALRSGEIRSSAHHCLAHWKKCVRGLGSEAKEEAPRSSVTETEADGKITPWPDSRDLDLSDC

female Sabra mice [5] = experiment: Tetrad: rearing (vertical movements) in an open field; type: in vivo; conditions: 20 mg/kg i.p.
Procedure: as §1

CB1 receptor = CB1 receptor (Rattus norvegicus, UniProt P20272); conditions: cited from earlier work
Chain of CB1 receptor (P20272 whole entry): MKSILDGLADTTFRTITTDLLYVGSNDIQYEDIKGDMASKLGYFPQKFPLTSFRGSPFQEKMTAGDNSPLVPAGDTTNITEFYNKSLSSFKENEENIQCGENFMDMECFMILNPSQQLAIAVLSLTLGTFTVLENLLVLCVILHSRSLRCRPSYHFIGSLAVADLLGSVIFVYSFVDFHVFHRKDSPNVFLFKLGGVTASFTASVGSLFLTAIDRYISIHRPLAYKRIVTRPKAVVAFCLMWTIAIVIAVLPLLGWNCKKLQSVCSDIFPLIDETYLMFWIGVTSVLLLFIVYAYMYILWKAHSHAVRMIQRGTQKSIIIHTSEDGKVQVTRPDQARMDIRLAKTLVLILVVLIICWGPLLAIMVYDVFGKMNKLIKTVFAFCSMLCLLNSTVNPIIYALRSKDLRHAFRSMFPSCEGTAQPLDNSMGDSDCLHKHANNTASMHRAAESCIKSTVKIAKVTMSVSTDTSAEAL

[6] = tested on: CB1−/− receptor knockout mice; experiment: Intestinal motility in CB1−/− receptor knockout mice; type: in vivo; conditions: 20 mg/kg i.p., defecation rate recorded for 3 hours
Procedure: Female CB1−/− knockout mice were injected i.p. with (+)-7-OH-CBD-DMH, (+)-CBD-DMH or Δ^9-THC (20 mg/kg). Intestinal motility (defecation rate) was recorded for a period of 3 hours.
(§5) Female Sabra mice (2-3 months of age) were purchased from Harlan, Israel. Breeding pairs of CB1−/− receptor knockout mice were provided by Prof. A. Zimmer, University Clinic Bonn, Germany.
as §2

female Sabra mice [7] = experiment: Tetrad: catalepsy (immobility) on an elevated ring; type: in vivo; conditions: 20 mg/kg i.p., elevated ring 4 min; normalized; * = P<0.05 vs vehicle
Procedure: as §1

female Sabra mice [8] = experiment: Intestinal motility after antagonist pre-treatment (SR141716A, SR144528, capsazepine); type: in vivo; conditions: for reversal of inhibition of defecation by CB1 antagonist SR141716A / reversal of inhibition of defecation by CB2 antagonist SR144528: agonist 20 mg/kg; for reversal of inhibition of defecation by CB1 antagonist SR141716A: SR141716A 1 mg/kg i.p. 30 minutes before agonist; for reversal of inhibition of defecation by CB2 antagonist SR144528: SR144528 1 or 3 mg/kg i.p. 30 minutes before agonist
Procedure: (SR1, 1 mg/kg). SR1 was injected (i.p.) 30 minutes before the agonist. 60 minutes after (+)CBD-DMH the number of fecal pellets was recorded.
(SR2, 1 mg/kg). SR2 was injected (i.p.) 30 minutes before the agonist. 60 minutes after (+)-CBD-DMH the number of fecal pellets was recorded.
as §1, §2

female Sabra mice [9] = experiment: Tetrad: ambulation (horizontal movements) in an open field; type: in vivo; conditions: 20 mg/kg i.p., open field 8 min, 30 or 60 min after injection; normalized; * = P<0.05 vs vehicle
Procedure: as §1

[10] = tested on: formalin-induced peripheral pain in mice; experiment: Formalin-induced peripheral pain (second phase); type: in vivo; conditions: formalin 4% in hind footpad, 45 minutes after drug; paw licks over 60 minutes
Procedure: Formalin (4%) was injected in the left hind footpad and the number of licks of the injected foot were recorded for each 5 minutes interval for the 60 minutes starting immediately after formalin application.
as §3, §4

female Sabra mice [11] = experiment: Hypothermia (rectal temperature); type: in vivo; conditions: 20 mg/kg i.p., * = P<0.05 vs vehicle
Procedure: as §1, §2

[12] = tested on: CB1−/− receptor knockout mice; experiment: Central effects in CB1−/− receptor knockout mice; type: in vivo; conditions: not shown
Procedure: as §5, §1

C=C(C)C1CCC(C)=CC1c1c(O)cc(C(C)(C)CCCCCC)cc1O (single isomer, unassigned; (+)) [+CBD−DMH, (+)-CBD-DMH]
central effects (tetrad), in words (female Sabra mice [1]): absence of central effects or small effects; also recorded: Lack of central effects | inhibition of defecation / intestinal motility, in words (female Sabra mice [2]; 60 minutes after injection): completely blocked | Inhibition of Intesitinal Motility (% MPE) (female Sabra mice [2]; defecation in open field 8 min, normalized, * = P<0.05 vs vehicle): 100* % MPE | centrally mediated pain on hot plate, in words (female Sabra mice [3]; 20 mg/kg): not active; also recorded: not affected | Analgesia (Hot Plate) (% MPE) (female Sabra mice [3]; 20 mg/kg i.p., hot plate 55° C., max 45 sec, normalized, * = P<0.05 vs vehicle): 10 % MPE | potency compared to indomethacin in ear inflammation, in words ([4]; listed as (+) CBD-DMH): as effective as indomethacin | potency compared to indomethacin in ear inflammation, in words ([4]; listed as (+)-CBD-DMH): equal potency as indomethacin; also recorded: as potent as indomethacin | potency compared to indomethacin in ear inflammation, in words ([4]; listed as (+)CBD-DMH): Equal potencies | inhibition of arachidonic acid-induced ear inflammation, in words ([4]; i.p., 10 to 40 mg/kg, ear thickness every 15 minutes for 90 minutes): almost completely inhibited | Kd (CB2 receptor; previously reported, Bisogno et al. 2001, read-out: affinity for the CB2 receptor (Kd)): 211 nM | Ki (CB2 receptor; second value of CB1/CB2 cell, data from Bisogno et al., 2001, read-out: CB2 Receptor Binding (Ki)): 210 nM | effect on rearing in an open-field, in words (female Sabra mice [5]): modest effect | Vertical Movements (% MPE) (female Sabra mice [5]; open field 8 min, normalized, * = P<0.05 vs vehicle): 61 % MPE | Ki (CB1 receptor; first value of CB1/CB2 cell, data from Bisogno et al., 2001, read-out: CB1 Receptor Binding (Ki)): 17 nM | Kd (CB1 receptor; previously reported, Bisogno et al. 2001, read-out: affinity for the CB1 receptor (Kd)): 17.4 nM | effect on intestinal motility in CB1−/− knockout mice [6]: absence of inhibition of intestinal motility; also recorded: None of the drugs assessed ((+)-CBD-DMH, (+)-7-OH-CBD-DMH and Δ^9-THC had any effect; also recorded: no effects | Catalepsy (Freezing of Movement) (% MPE) (female Sabra mice [7]): 16 % MPE | reversal of inhibition of defecation by CB1 antagonist SR141716A (female Sabra mice [8]; listed as (+) CBD-DMH): almost fully reversed | reversal of inhibition of defecation by CB1 antagonist SR141716A (female Sabra mice [8]; listed as (+)-CBD-DMH): effectively antagonized; also recorded: partial reversal | reversal of inhibition of defecation by CB2 antagonist SR144528 (female Sabra mice [8]; listed as (+) CBD-DMH): not at all | reversal of inhibition of defecation by CB2 antagonist SR144528 (female Sabra mice [8]; listed as (+)-CBD-DMH): not at all; also recorded: did not prevent; also recorded: no reversal | effect of VR1 antagonist capsazepine on inhibition of defecation (female Sabra mice [8]; data not shown): did not affect | Horizontal Movements (% MPE) (female Sabra mice [9]): 82 % MPE | second (inflammatory) phase of formalin-induced pain, in words [10]: completely inhibited the second phase; also recorded: almost completely inhibited; also recorded: almost completely prevented the second phase of pain | Hypothermia (Δ-Body Temp.) (female Sabra mice [11]): −0.3 °C | central effects in CB1−/− receptor knockout mice [12]: None of the drugs assessed ((+)-CBD-DMH, (+)-7-OH-CBD-DMH and Δ^9-THC had any effect
